Source: US6525001B1, “Substituted pyrimidine and pyridine herbicides” (Mid-American Commercialization Corporation, priority 1997, dated 2003)

Tests used:
Type in all cases: in vivo
[1] = test system: bedstraw (Galium aparine); assay: Test B pre-/postemergence; parameters: key: 0 is no effect; 10 is complete control
How it was run: (§1)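 Seeds were planted and sprayed preemergence, while plants at 2 to 18 cm (1- to 4-leaf stage) were sprayed postemergence at the same time, with test chemical in a non-phytotoxic solvent mixture containing surfactant. After twelve to sixteen days in a greenhouse, injury was rated visually against untreated controls on a 0–10 scale.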

[2] = test system: blackgrass (Alopecurus myosuroides); assay: Test B pre-/postemergence; parameters: key: 0 is no effect; 10 is complete control
How it was run: as §1

[3] = test system: broadleaf signalgrass (Brachiaria decumbens); assay: Test B pre-/postemergence; parameters: key: 0 is no effect; 10 is complete control
How it was run: as §1

[4] = test system: cocklebur (Xanthium strumarium); assay: Test B pre-/postemergence; parameters: key: 0 is no effect; 10 is complete control
How it was run: as §1

corn (Zea mays) = assay: Test B pre-/postemergence; parameters: key: 0 is no effect; 10 is complete control
How it was run: as §1

[5] = test system: crabgrass (Digitaria sanguinalis); assay: Test B pre-/postemergence; parameters: key: 0 is no effect; 10 is complete control
How it was run: as §1

[6] = test system: giant foxtail (Setaria faberii); assay: Test B pre-/postemergence; parameters: key: 0 is no effect; 10 is complete control
How it was run: as §1

[7] = test system: momingglory (Ipomoea hederacea); assay: Test B pre-/postemergence; parameters: key: 0 is no effect; 10 is complete control
How it was run: as §1

[8] = test system: pigweed (Amaranthus retroflexus); assay: Test B pre-/postemergence; parameters: key: 0 is no effect; 10 is complete control
How it was run: as §1

[9] = test system: purple nutsedge (Cyperus rotundus); assay: Test B pre-/postemergence; parameters: key: 0 is no effect; 10 is complete control
How it was run: as §1

rape (Brassica napus) = assay: Test B pre-/postemergence; parameters: key: 0 is no effect; 10 is complete control
How it was run: as §1

soybean (Glycine max) = assay: Test B pre-/postemergence; parameters: key: 0 is no effect; 10 is complete control
How it was run: as §1

[10] = test system: sugar beet (Beta vulgaris); assay: Test B pre-/postemergence; parameters: key: 0 is no effect; 10 is complete control
How it was run: as §1

[11] = test system: velvetleaf (Abutilon theophrasti); assay: Test B pre-/postemergence; parameters: key: 0 is no effect; 10 is complete control
How it was run: as §1

[12] = test system: wheat (Triticum aestivum); assay: Test B pre-/postemergence; parameters: key: 0 is no effect; 10 is complete control
How it was run: as §1

wild oat (Avena fatua) = assay: Test B pre-/postemergence; parameters: key: 0 is no effect; 10 is complete control
How it was run: as §1

[13] = test system: bamyardgrass (Echinochloa crus-galli); assay: Test B flood test
How it was run: (§2)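 Plants were grown to the 2-leaf stage before treatment with test chemical, then held in a greenhouse for twelve to sixteen days. Injury was visually rated against untreated controls on a 0–10 scale, where 0 is no effect and 10 is complete control.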

[14] = test system: duck salad (Heteranthera limosa); assay: Test B flood test
How it was run: as §2

rice (Oryza sativa) = assay: Test B flood test
How it was run: as §2

[15] = test system: smallflower flatsedge (Cyperus difformis); assay: Test B flood test
How it was run: as §2

[16] = Rate 62 g/ha, Postemergence (flood test)
[17] = Rate 125 g/ha, Postemergence, flood test
[18] = Rate 250 g/ha, Postemergence (flood test species)

Cc1cnc(-c2ccc(C(F)(F)F)cc2)nc1C(C#N)c1cccc(C(F)(F)F)c1 (racemic) [Compound 17]
4: Plant response rating, B. signalgrass ([3]; Rate 62 g/ha, Postemergence) | Plant response rating, Cocklebur ([4]; Rate 62 g/ha, Postemergence) | Plant response rating, Crabgrass ([5]; Rate 62 g/ha, Postemergence) | Plant response rating, Crabgrass ([5]; Rate 125 g/ha, Postemergence) | Plant response rating, Crabgrass ([5]; Rate 250 g/ha, Postemergence) | Plant response rating, Giant foxtail ([6]; Rate 125 g/ha, Postemergence) | Redroot pigweed plant response rating ([8]; Rate 62 g/ha, Preemergence) | Plant response rating, Velvetleaf ([11]; Rate 125 g/ha, Postemergence) | Plant response rating, Wheat ([12]; Rate 250 g/ha, Postemergence) | Plant response rating, Wild oats (wild oat (Avena fatua); Rate 125 g/ha, Postemergence) | Plant response rating, Barnyardgrass [13, 16] | Plant response rating, Barnyardgrass [13, 17] | Plant response rating, Rice (rice (Oryza sativa); [16]) | Plant response rating, Rice (rice (Oryza sativa); [17])
2: Blackgrass plant response rating ([2]; Rate 62 g/ha, Preemergence) | Plant response rating, Corn (corn (Zea mays); Rate 62 g/ha, Postemergence) | Plant response rating, Corn (corn (Zea mays); Rate 125 g/ha, Postemergence) | Plant response rating, Giant foxtail ([6]; Rate 62 g/ha, Postemergence) | Plant response rating, Morningglory ([7]; Rate 250 g/ha, Preemergence) | Rape plant response rating (rape (Brassica napus); Rate 125 g/ha, Preemergence) | Plant response rating, Velvetleaf ([11]; Rate 62 g/ha, Postemergence) | Wild oats plant response rating (wild oat (Avena fatua); Rate 62 g/ha, Preemergence) | Plant response rating, S. Flatsedge [15, 16]
9: Plant response rating, Bedstraw ([1]; Rate 125 g/ha, Postemergence) | Plant response rating, Bedstraw ([1]; Rate 250 g/ha, Postemergence) | Plant response rating, Blackgrass ([2]; Rate 250 g/ha, Preemergence) | Plant response rating, B. signalgrass ([3]; Rate 250 g/ha, Preemergence) | Plant response rating, Crabgrass ([5]; Rate 250 g/ha, Preemergence) | Plant response rating, Redroot pigweed ([8]; Rate 62 g/ha, Postemergence) | Redroot pigweed plant response rating ([8]; Rate 125 g/ha, Preemergence) | Plant response rating, Sugarbeets ([10]; Rate 62 g/ha, Postemergence) | Plant response rating, Sugarbeets ([10]; Rate 250 g/ha, Preemergence)
0: Cocklebur plant response rating ([4]; Rate 62 g/ha, Preemergence) | Cocklebur plant response rating ([4]; Rate 125 g/ha, Preemergence) | Plant response rating, Cocklebur ([4]; Rate 250 g/ha, Preemergence) | Corn plant response rating (corn (Zea mays); Rate 62 g/ha, Preemergence) | Corn plant response rating (corn (Zea mays); Rate 125 g/ha, Preemergence) | Morningglory plant response rating ([7]; Rate 62 g/ha, Preemergence) | Plant response rating, Nutsedge ([9]; Rate 62 g/ha, Postemergence) | Nutsedge plant response rating ([9]; Rate 62 g/ha, Preemergence) | Plant response rating, Nutsedge ([9]; Rate 125 g/ha, Postemergence) | Nutsedge plant response rating ([9]; Rate 125 g/ha, Preemergence) | Plant response rating, Nutsedge ([9]; Rate 250 g/ha, Postemergence) | Plant response rating, Nutsedge ([9]; Rate 250 g/ha, Preemergence) | Rape plant response rating (rape (Brassica napus); Rate 62 g/ha, Preemergence) | Soybean plant response rating (soybean (Glycine max); Rate 62 g/ha, Preemergence) | Soybean plant response rating (soybean (Glycine max); Rate 125 g/ha, Preemergence) | Plant response rating, Soybean (soybean (Glycine max); Rate 250 g/ha, Preemergence) | Velvetleaf plant response rating ([11]; Rate 62 g/ha, Preemergence) | Wheat plant response rating ([12]; Rate 62 g/ha, Preemergence)
7: Plant response rating, Blackgrass ([2]; Rate 250 g/ha, Postemergence) | B. signalgrass plant response rating ([3]; Rate 125 g/ha, Preemergence) | Plant response rating, B. signalgrass ([3]; Rate 250 g/ha, Postemergence) | Plant response rating, Morningglory ([7]; Rate 62 g/ha, Postemergence) | Plant response rating, Rape (rape (Brassica napus); Rate 62 g/ha, Postemergence) | Plant response rating, Velvetleaf ([11]; Rate 250 g/ha, Postemergence)
5: Plant response rating, Bedstraw ([1]; Rate 250 g/ha, Preemergence) | Plant response rating, B. signalgrass ([3]; Rate 125 g/ha, Postemergence) | Giant foxtail plant response rating ([6]; Rate 62 g/ha, Preemergence) | Plant response rating, Giant foxtail ([6]; Rate 250 g/ha, Postemergence) | Wild oats plant response rating (wild oat (Avena fatua); Rate 125 g/ha, Preemergence) | Plant response rating, Wild oats (wild oat (Avena fatua); Rate 250 g/ha, Postemergence) | Plant response rating, Ducksalad [14, 17] | Plant response rating, Ducksalad [14, 18] | Plant response rating, S. Flatsedge [15, 18]
3: Bedstraw plant response rating ([1]; Rate 125 g/ha, Preemergence) | Plant response rating, Blackgrass ([2]; Rate 62 g/ha, Postemergence) | B. signalgrass plant response rating ([3]; Rate 62 g/ha, Preemergence) | Plant response rating, Corn (corn (Zea mays); Rate 250 g/ha, Postemergence) | Crabgrass plant response rating ([5]; Rate 62 g/ha, Preemergence) | Plant response rating, Rape (rape (Brassica napus); Rate 250 g/ha, Preemergence) | Plant response rating, Soybean (soybean (Glycine max); Rate 62 g/ha, Postemergence) | Plant response rating, Soybean (soybean (Glycine max); Rate 125 g/ha, Postemergence) | Plant response rating, Wheat ([12]; Rate 62 g/ha, Postemergence) | Plant response rating, Wheat ([12]; Rate 125 g/ha, Postemergence) | Plant response rating, Wheat ([12]; Rate 250 g/ha, Preemergence) | Plant response rating, Wild oats (wild oat (Avena fatua); Rate 62 g/ha, Postemergence) | Plant response rating, Ducksalad [14, 16] | Plant response rating, S. Flatsedge [15, 17]
6: Plant response rating, Blackgrass ([2]; Rate 125 g/ha, Postemergence) | Blackgrass plant response rating ([2]; Rate 125 g/ha, Preemergence) | Plant response rating, Barnyardgrass [13, 18] | Plant response rating, Rice (rice (Oryza sativa); [18])
10: Giant foxtail plant response rating ([6]; Rate 125 g/ha, Preemergence) | Plant response rating, Giant foxtail ([6]; Rate 250 g/ha, Preemergence) | Plant response rating, Redroot pigweed ([8]; Rate 125 g/ha, Postemergence) | Plant response rating, Redroot pigweed ([8]; Rate 250 g/ha, Postemergence) | Plant response rating, Redroot pigweed ([8]; Rate 250 g/ha, Preemergence) | Plant response rating, Sugarbeets ([10]; Rate 125 g/ha, Postemergence) | Plant response rating, Sugarbeets ([10]; Rate 250 g/ha, Postemergence)
1: Bedstraw plant response rating ([1]; Rate 62 g/ha, Preemergence) | Plant response rating, Corn (corn (Zea mays); Rate 250 g/ha, Preemergence) | Morningglory plant response rating ([7]; Rate 125 g/ha, Preemergence) | Sugarbeets plant response rating ([10]; Rate 62 g/ha, Preemergence) | Velvetleaf plant response rating ([11]; Rate 125 g/ha, Preemergence) | Plant response rating, Velvetleaf ([11]; Rate 250 g/ha, Preemergence) | Wheat plant response rating ([12]; Rate 125 g/ha, Preemergence)
8: Plant response rating, Bedstraw ([1]; Rate 62 g/ha, Postemergence) | Plant response rating, Cocklebur ([4]; Rate 125 g/ha, Postemergence) | Plant response rating, Cocklebur ([4]; Rate 250 g/ha, Postemergence) | Crabgrass plant response rating ([5]; Rate 125 g/ha, Preemergence) | Plant response rating, Morningglory ([7]; Rate 125 g/ha, Postemergence) | Plant response rating, Morningglory ([7]; Rate 250 g/ha, Postemergence) | Plant response rating, Rape (rape (Brassica napus); Rate 125 g/ha, Postemergence) | Plant response rating, Rape (rape (Brassica napus); Rate 250 g/ha, Postemergence) | Plant response rating, Soybean (soybean (Glycine max); Rate 250 g/ha, Postemergence) | Sugarbeets plant response rating ([10]; Rate 125 g/ha, Preemergence) | Plant response rating, Wild oats (wild oat (Avena fatua); Rate 250 g/ha, Preemergence)
